Assay results taken from patent publication US20050228180A1, “Alpha, omega-dicarboximide derivatives as useful uro-selective a1a adrenoceptor blockers” (priority 2002, published 2005).
Structures can show the parent of a compound that is named as a salt.

How the values were obtained:
[1] = target: T1, α1A adrenoceptor (Rattus norvegicus, UniProt P43140); experiment: Radioligand binding, [3H] prazosin displacement, rat submaxillary membranes; conditions: for Ki: [3H] prazosin displacement, rat submaxillary membranes, read-out: Affinity (Ki) α1A (Rat Submaxillary); for α1B/α1A: ratio of binding affinities, rat liver / rat submaxillary
T1 construct: from tissue; host or cells: rat submaxillary gland membranes
T1 sequence (P43140 1-466): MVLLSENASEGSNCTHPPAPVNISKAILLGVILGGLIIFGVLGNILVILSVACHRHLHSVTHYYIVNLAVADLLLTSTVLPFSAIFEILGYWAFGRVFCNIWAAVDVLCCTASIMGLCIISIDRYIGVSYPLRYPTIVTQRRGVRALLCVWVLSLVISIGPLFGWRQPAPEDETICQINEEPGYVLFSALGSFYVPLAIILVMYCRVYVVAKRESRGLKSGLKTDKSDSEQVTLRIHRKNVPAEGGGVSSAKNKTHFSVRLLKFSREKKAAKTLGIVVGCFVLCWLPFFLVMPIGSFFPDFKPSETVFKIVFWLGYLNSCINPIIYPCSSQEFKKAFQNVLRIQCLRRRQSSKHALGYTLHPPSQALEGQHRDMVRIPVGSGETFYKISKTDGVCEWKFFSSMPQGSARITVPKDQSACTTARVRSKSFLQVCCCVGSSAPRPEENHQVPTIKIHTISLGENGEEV
Experimental: (§1) Receptor binding assays were performed using native a-adrenoceptors. The affinity of different compounds for α1A and α1B adrenoceptor subtypes was evaluated by studying their ability to displace specific [^3H] prazosin binding from the membranes of rat submaxillary and liver respectively (Michel et al., Br J Pharmacol, 1989: 98:883). The binding assays were performed according to U+Prichard et al. (Eur J Pharmacol, 1978; 50:87 with minor modifications.
(§2) Submaxillary glands were isolated immediately after sacrifice. The liver was perfused with buffer (Tris HCl 50 mM, NaCl 100 mM, 10 mM EDTA pH 7.4). The tissues were homogenised in 10 volumes of buffer (Tris HCl 50 mM, NaCl 100 mM, 10 mM EDTA pH 7.4). The homogenate was filtered through two layers of wet gauge and filtrate was centrifuged at 500 g for 10 min. The supernatant was subsequently centrifuged at 40,000 g for 45 min. The pellet thus obtained was resuspended in the same volume of assay buffer (Tris HCl 50 mM, 5 mM EDTA pH 7.4) and was stored at −70° C. until the time of assay.
(§3) The membrane homogenates (150-250 μg protein) were incubated in 250 μl of assay buffer (Tris HCl 50 mM, EDTA 5 mM, pH 7.4) at 24-25° C. for 1 hour. Non specific binding was determined in the presence of 300 nM prazosin. The incubation was terminated by vacuum filtration over GF/B fibre filters. The filters were then washed with ice cold 50 mM Tris HCl buffer (pH 7.4). The filtermats were dried and bound radioactivity retained on filters was counted. The IC50 and Kd were estimated by using the non-linear curve-fitting program using G Pad Prism software. The value of inhibition constant Ki was calculated from competitive binding studies by using Cheng & Prusoff equation (Cheng & Prusoff, Biochem Pharmacol, 1973, 22: 3099-3108), Ki=IC50/(1+L/Kd) where L is the concentration of [^3H] prazosin used in the particular experiment (Table 1).

[2] = target: T2, α1B adrenoceptor (Rattus norvegicus, UniProt P15823); experiment: Radioligand binding, [3H] prazosin displacement, rat liver membranes; conditions: read-out: Affinity (Ki) α1B (Rat Liver)
T2 construct: from tissue; host or cells: rat liver membranes
T2 sequence (P15823 1-515): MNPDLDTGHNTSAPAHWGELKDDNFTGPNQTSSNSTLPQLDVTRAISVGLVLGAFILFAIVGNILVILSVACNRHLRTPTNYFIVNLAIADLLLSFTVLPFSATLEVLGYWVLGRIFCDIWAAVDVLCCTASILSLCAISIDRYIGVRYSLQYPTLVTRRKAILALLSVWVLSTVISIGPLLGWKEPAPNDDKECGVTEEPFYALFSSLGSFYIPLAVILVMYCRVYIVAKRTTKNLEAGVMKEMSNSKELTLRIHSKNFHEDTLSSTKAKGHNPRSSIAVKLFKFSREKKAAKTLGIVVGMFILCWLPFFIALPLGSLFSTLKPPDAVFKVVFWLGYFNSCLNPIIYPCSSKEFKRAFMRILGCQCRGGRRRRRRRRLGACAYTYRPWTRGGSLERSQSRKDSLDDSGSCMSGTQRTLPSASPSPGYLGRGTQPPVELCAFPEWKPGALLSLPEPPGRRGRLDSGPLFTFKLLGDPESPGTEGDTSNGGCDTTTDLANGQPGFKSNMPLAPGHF
Experimental: as §1, §2, §3

Ki [1] [nM]	α1B/α1A [1]	Ki [2] [nM]	Compound
6.9	200	1380	Cl.O=C1CCCC(=O)N1CC(O)CN1CCN(c2ccccc2OCC(F)(F)F)CC1 (centres unmarked) [Compound No. 39, 1-[4-{2-(2,2,2-Trifluoroethoxy)phenyl)piperazin-1-yl]-2-hydroxy-3-(2,6-dioxopiperidin-1-yl)propane hydrochloride]
19	41	781	CC(C)Oc1ccccc1NCCNCCCN1C(=O)[C@H]2CC=CC[C@H]2C1=O [Compound No. 42, 2-[N-{N′-(2-Isopropoxyphenyl)aminoethyl}aminopropyl]-3a,4,7,7a-tetrahydro-1H-isoindole-1,3(2H)-dione hydrochloride]
594	3	1740	Cl.O=C1CCCC(=O)N1CC(O)CN1CCN(c2ccccc2O)CC1 (centres unmarked) [Compound No. 44, 1-[4-(2-hydroxyphenyl)piperazin-1-yl]-2-hydroxy-3-(2,6-dioxopiperidin-1-yl]propane hydrochloride]
8.6	14	120	O=C1C2CC=CCC2C(=O)N1CCCN1CCN(c2ccccc2-c2ccccc2)CC1 (centres unmarked) [Compound No. 45, 2-[3-{4-(2-Biphenyl)piperazin-1-yl}propyl]-3a,4,7,7a-tetrahydro-1H-isoindole-1,3(2H)-dione hydrochloride]
379	>3	> 1000	CC(=O)N(CCCN1C(=O)C2CC=CCC2C1=O)CCNc1ccccc1OC(C)C.Cl (centres unmarked) [Compound No. 46, 2-[N-{N′-(2-Isopropoxyphenyl)aminoethyl}acetylaminopropyl]-3a,4,7,7a-tetrahydro-1H-isoindole-1,3(2H)-dione hydrochloride]
299	>3	> 1000	CC(=O)N(CCNCCCN1C(=O)C2CC=CCC2C1=O)c1ccccc1OC(C)C.Cl (centres unmarked) [Compound No. 47, 2-[N-{N′-(2-Isopropoxyphenyl)acetylaminoethyl}aminopropyl]-3a,4,7,7a-tetrahydro-1H-isoindole-1,3(2H)-dione hydrochloride]
91	>11	> 1000	CC(C)Oc1ccccc1NCCN(CCO)CCCN1C(=O)[C@H]2CC=CC[C@H]2C1=O [Compound No. 48, 2-[N-[{N′-(2-Isopropoxyphenyl)aminoethyl}hydroxyethyl]aminopropyl]-3a,4,7,7a-tetrahydro-1H-isoindole-1,3(2H)-dione hydrochloride]
> 1000	1	> 1000	CC(C)Oc1ccccc1N1CCN(C(=O)CCN2C(=O)CCCC2=O)CC1.Cl [Compound No. 49, 1-[4(2-Isopropoxyphenyl)piperazin-1-yl]-1-oxo-3-(2,6-dioxopiperidin-1-yl)propane hydrochloride]
47	>21	> 1000	CC(C)Oc1ccccc1NCCN(CC=O)CCCN1C(=O)C2CC=CCC2C1=O (centres unmarked) [Compound No. 50, 2-[N-{N′-(2-Isopropoxyphenyl)aminoethyl}acetaldehyde-aminopropyl]-3a,4,7,7a-tetrahydro-1H-isoindole-1,3(2H)-dione]
662	>23	> 15000	CC(C)Oc1ccccc1N(CCO)CCN(CCO)CCCN1C(=O)C2CC=CCC2C1=O (centres unmarked) [Compound No. 51]

More lines, now with the values behind:

Compound	Ki [1] [nM]	α1B/α1A [1]	Ki [2] [nM]
1-[4-(2-Ethoxyphenyl)piperazin-1-yl]-3-(2,6-dioxopiperadin-1-yl)ethane hydrochloride [compound 05]	70	20	1380
Cl.O=C1C2CC=CCC2C(=O)N1CC(O)CN1CCN(c2ccccc2O)CC1 (centres unmarked) [Compound No. 14, 2-[3-{4-(2-Hydroxyphenyl)piperazin-1-yl}-2-hydroxypropyl]-3a,4,7,7a-tetrahydro-1H-isoindole-1,3(2H)-dione hydrochloride]	49	10	504
CCOc1ccccc1N1CCN(CCN2C(=O)C3CC=CCC3C2=O)CC1.Cl (centres unmarked) [Compound No. 15, 2-[2-{4-(2-Ethoxyphenyl)piperazin-1-yl}ethyl]-3a,4,7,7a-tetrahydro-1H-isoindole-1,3(2H)-dione hydrochloride]	35	10	346
Cl.O=C1C2CC=CCC2C(=O)N1CCN1CCN(c2ccccc2OCC(F)(F)F)CC1 (centres unmarked) [Compound No. 16, 2-[2-{4-(2-(2,2,2-Trifluoroethoxy)phenyl)piperazin-1-yl}ethyl]-3a,4,7,7a-tetrahydro-1H-isoindole-1,3(2H)-dione hydrochloride]	19	14	267
CCOc1ccccc1N1CCN(CCCN2C(=O)C3CC(O)C(Cl)CC3C2=O)CC1.Cl (centres unmarked) [Compound No. 17, hydrochloride]	1.6	–	80
O=C1C2CC=CCC2C(=O)N1CCC[N+]1([O-])CCN(c2ccccc2O)CC1 (centres unmarked) [Compound No. 22, 2-[3-{4-(2-Hydroxyphenyl)piperazin-1-yl, 1-N-oxide}propyl]-3a,4,7,7a-tetrahydro-1H-isoindole-1,3(2H)-dione]	1590	0.7	1090
CCOc1ccc(O)cc1N1CCN(CCCN2C(=O)C3CC=CCC3C2=O)CC1 (centres unmarked) [Compound No. 24, 2-[3-{4-(2-Ethoxy-5-hydroxyphenyl)piperazin-1-yl}propyl]-3a,4,7,7a-tetrahydro-1H-isoindole-1,3-(2H)-dione hydrochloride]	5.9	84	495
CC(C)Oc1cccc(O)c1N1CCN(CCCN2C(=O)C3CC=CCC3C2=O)CC1 (centres unmarked) [Compound No. 27, 2-[3-{4-(2-isopropoxy-6-hydroxyphenyl)piperazin-1-yl}propyl]-3a,7,7a-tetrahydro-1H-isoindole-1,3(2H)-dione hydrochloride]	306	16	> 5000
CC(C)Oc1c(O)cccc1N1CCN(CCCN2C(=O)C3CC=CCC3C2=O)CC1 (centres unmarked) [Compound No. 35, 2-[3-{4-(2-Isopropoxy-3-hydroxyphenyl)piperazin-1-yllpropyl]-3a,4,7,7a-tetrahydro-1H-isoindole-1,3(2H)-dione hydrochloride]	38	15	582
CC(C)Oc1ccc(O)cc1N1CCN(CCCN2C(=O)CCCC2=O)CC1 [Compound No. 36, 1-[4-(2-Isopropoxy-5-hydroxyphenyl)piperazin-1-yl]-3-(2,6-dioxopiperdin-1-yl)piperazin-1-yl]-3-(2,6-dioxopiperidin-1-yl)propane hydrochloride]	11	52	571
CC(C)Oc1cccc(O)c1N1CCN(CCCN2C(=O)CCCC2=O)CC1 [Compound No. 37, 1-[4-(2-Isopropoxy-6-hydroxyphenyl)piperazin-1-yl]-3-(2,6-dioxopiperdin-1-yl)propane hydrochloride]	462	>2	> 1000
CC(C)Oc1c(O)cccc1N1CCN(CCCN2C(=O)CCCC2=O)CC1.Cl [Compound No. 38, 1-[4-(2-Isopropoxy-3-hydroxyphenyl)piperazin-1-yl]-3-(2,6-dioxopiperidin-1-yl)propane hydrochloride]	141	5	760
